Measurements reported in US20230085307A1, “PYRIDAZINONE COMPOUND AND HERBICIDE” (NISSAN CHEMICAL CORPORATION, priority 2019, published 2023).

How the values were obtained:
[1] = tested on: wild oat; assay: Test Example 4: herbicidal effect by soil treatment (Table 19, symbol I); assay type: in vivo, wild oat (Avena fatua); settings: amount of applied herbicide 320 g/ha
Outline: (§1)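 Applied as a water-diluted emulsion, the compound was sprayed onto soil covering newly sown seeds. Evaluation came three weeks after application, in a greenhouse held at 25° C. to 30° C.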

[2] = tested on: blackgrass; assay: Test Example 4: herbicidal effect by soil treatment (Table 19, symbol J); assay type: in vivo, blackgrass (Alopecurus myosuroides); settings: amount of applied herbicide 320 g/ha
Outline: as §1

[3] = tested on: barnyard grass; assay: Test Example 3: herbicidal effect by foliage application, Wagner pot (Table 18, symbol H); assay type: in vivo, barnyard grass (Echinochloa crus-galli); settings: 320 g/ha
Outline: (§2)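 Plants were sown in alluvial soil held under 0.1–0.5 cm standing water and grown 14 days in a greenhouse at 25–30 °C. An emulsifiable formulation, water-diluted to the set dose, was then sprayed onto the foliage, and effects were scored three weeks later using previously defined criteria.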

[4] = tested on: persian speedwell; assay: Test Example 4: herbicidal effect by soil treatment (Table 19, symbol R); assay type: in vivo, Persian speedwell (Veronica persica); settings: amount of applied herbicide 320 g/ha
Outline: as §1

[5] = tested on: false cleavers; assay: Test Example 4: herbicidal effect by soil treatment (Table 19, symbol Q); assay type: in vivo, false cleavers (Galium spurium); settings: amount of applied herbicide 320 g/ha
Outline: as §1

[6] = tested on: southern crabgrass; assay: Test Example 4: herbicidal effect by soil treatment (Table 19, symbol F); assay type: in vivo, southern crabgrass (Digitaria ciliaris); settings: amount of applied herbicide 320 g/ha
Outline: as §1

[7] = tested on: velvetleaf; assay: Test Example 5: herbicidal effect by foliage application, plastic box (Table 20, symbol M); assay type: in vivo, velvetleaf (Abutilon theophrasti); settings: foliage application, AAH 320 g/ha, three weeks after application
Outline: (§3)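 Sow seeds spot-wise in sterilized diluvial soil; cover with ~1.5 cm soil. Grow 14 days in greenhouse, 25° C. to 30° C. Spray foliage with emulsion diluted to predetermined amount. Rate effect after 3 weeks.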

[8] = tested on: green foxtail; assay: Test Example 5: herbicidal effect by foliage application, plastic box (Table 20, symbol G); assay type: in vivo, green foxtail (Setaria viridis); settings: foliage application, AAH 320 g/ha, three weeks after application
Outline: as §3

[9] = tested on: rice flat sedge; assay: Test Example 3: herbicidal effect by foliage application, Wagner pot (Table 18, symbol E); assay type: in vivo, rice flat sedge (Cyperus iria); settings: 320 g/ha
Outline: as §2

[10] = tested on: velvetleaf; assay: Test Example 4: herbicidal effect by soil treatment (Table 19, symbol M); assay type: in vivo, velvetleaf (Abutilon theophrasti); settings: amount of applied herbicide 320 g/ha
Outline: as §1

[11] = tested on: false cleavers; assay: Test Example 5: herbicidal effect by foliage application, plastic box (Table 20, symbol Q); assay type: in vivo, false cleavers (Galium spurium); settings: foliage application, AAH 320 g/ha, three weeks after application
Outline: as §3

[12] = tested on: lambsquarters; assay: Test Example 4: herbicidal effect by soil treatment (Table 19, symbol O); assay type: in vivo, lambsquarters (Chenopodium album); settings: amount of applied herbicide 320 g/ha
Outline: as §1

[13] = tested on: Chinese sprangletop; assay: Test Example 3: herbicidal effect by foliage application, Wagner pot (Table 18, symbol D); assay type: in vivo, chinese sprangletop (Leptochloa chinensis); settings: 320 g/ha
Outline: as §2

[14] = tested on: persian speedwell; assay: Test Example 5: herbicidal effect by foliage application, plastic box (Table 20, symbol R); assay type: in vivo, Persian speedwell (Veronica persica); settings: foliage application, AAH 320 g/ha, three weeks after application
Outline: as §3

[15] = tested on: barnyard grass; assay: Test Example 5: herbicidal effect by foliage application, plastic box (Table 20, symbol H); assay type: in vivo, barnyard grass (Echinochloa crus-galli); settings: foliage application, AAH 320 g/ha, three weeks after application
Outline: as §3

[16] = tested on: green foxtail; assay: Test Example 4: herbicidal effect by soil treatment (Table 19, symbol G); assay type: in vivo, green foxtail (Setaria viridis); settings: amount of applied herbicide 320 g/ha
Outline: as §1

[17] = tested on: lambsquarters; assay: Test Example 5: herbicidal effect by foliage application, plastic box (Table 20, symbol O); assay type: in vivo, lambsquarters (Chenopodium album); settings: foliage application, AAH 320 g/ha, three weeks after application
Outline: as §3

[18] = tested on: chickweed; assay: Test Example 4: herbicidal effect by soil treatment (Table 19, symbol P); assay type: in vivo, common chickweed (Stellaria media); settings: amount of applied herbicide 320 g/ha
Outline: as §1

[19] = tested on: southern crabgrass; assay: Test Example 5: herbicidal effect by foliage application, plastic box (Table 20, symbol F); assay type: in vivo, southern crabgrass (Digitaria ciliaris); settings: foliage application, AAH 320 g/ha, three weeks after application
Outline: as §3

[20] = tested on: windgrass; assay: Test Example 5: herbicidal effect by foliage application, plastic box (Table 20, symbol L); assay type: in vivo, windgrass (Apera spica-venti); settings: foliage application, AAH 320 g/ha, three weeks after application
Outline: as §3

[21] = tested on: Italian ryegrass; assay: Test Example 4: herbicidal effect by soil treatment (Table 19, symbol K); assay type: in vivo, Italian ryegrass (Lolium multiflorum); settings: amount of applied herbicide 320 g/ha
Outline: as §1

[22] = tested on: barnyard grass; assay: Test Example 4: herbicidal effect by soil treatment (Table 19, symbol H); assay type: in vivo, barnyard grass (Echinochloa crus-galli); settings: amount of applied herbicide 320 g/ha
Outline: as §1

[23] = tested on: redroot pigweed; assay: Test Example 4: herbicidal effect by soil treatment (Table 19, symbol N); assay type: in vivo, redroot pigweed (Amaranthus retroflexus); settings: amount of applied herbicide 320 g/ha
Outline: as §1

[24] = tested on: wild oat; assay: Test Example 5: herbicidal effect by foliage application, plastic box (Table 20, symbol I); assay type: in vivo, wild oat (Avena fatua); settings: foliage application, AAH 320 g/ha, three weeks after application
Outline: as §3

[25] = tested on: Italian ryegrass; assay: Test Example 5: herbicidal effect by foliage application, plastic box (Table 20, symbol K); assay type: in vivo, Italian ryegrass (Lolium multiflorum); settings: foliage application, AAH 320 g/ha, three weeks after application
Outline: as §3

[26] = tested on: chickweed; assay: Test Example 5: herbicidal effect by foliage application, plastic box (Table 20, symbol P); assay type: in vivo, common chickweed (Stellaria media); settings: foliage application, AAH 320 g/ha, three weeks after application
Outline: as §3

[27] = tested on: windgrass; assay: Test Example 4: herbicidal effect by soil treatment (Table 19, symbol L); assay type: in vivo, windgrass (Apera spica-venti); settings: amount of applied herbicide 320 g/ha
Outline: as §1

[28] = tested on: blackgrass; assay: Test Example 5: herbicidal effect by foliage application, plastic box (Table 20, symbol J); assay type: in vivo, blackgrass (Alopecurus myosuroides); settings: foliage application, AAH 320 g/ha, three weeks after application
Outline: as §3

## Cc1nn(C)c(=O)c(-c2c(-c3ccc4c(c3)OC(F)(F)O4)sc3ccccc23)c1O [1-099]
[1]
  herbicidal effect rating, I: wild oat: 0 (Herbicidal rate of 5% or less (almost no effect))
[2]
  herbicidal effect rating, J: blackgrass: 0 (Herbicidal rate of 5% or less (almost no effect))
[3]
  herbicidal effect on H (barnyard grass), rating 0-5: 0 (Herbicidal rate of 5% or less (almost no effect))
[4]
  herbicidal effect rating, R: persian speedwell: 5 (Herbicidal rate of 90% or more (almost completely withered))
[5]
  herbicidal effect rating, Q: false cleavers: 2 (Herbicidal rate of 20% or more and less than 40%)
[6]
  herbicidal effect rating, F: southern crabgrass: 0 (Herbicidal rate of 5% or less (almost no effect))
[7]
  M: velvetleaf, herbicidal effect: 5 (Herbicidal rate of 90% or more (almost completely withered))
[8]
  G: green foxtail, herbicidal effect: 0 (Herbicidal rate of 5% or less (almost no effect))
[9]
  herbicidal effect on E (rice flat sedge), rating 0-5: 5 (Herbicidal rate of 90% or more (almost completely withered))
[10]
  herbicidal effect rating, M: velvetleaf: 0 (Herbicidal rate of 5% or less (almost no effect))
[11]
  Q: false cleavers, herbicidal effect: 2 (Herbicidal rate of 20% or more and less than 40%)
[12]
  herbicidal effect rating, O: lambsquarters: 0 (Herbicidal rate of 5% or less (almost no effect))
[13]
  herbicidal effect on D (Chinese sprangletop), rating 0-5: 0 (Herbicidal rate of 5% or less (almost no effect))
[14]
  R: persian speedwell, herbicidal effect: 5 (Herbicidal rate of 90% or more (almost completely withered))
[15]
  H: barnyard grass, herbicidal effect: 0 (Herbicidal rate of 5% or less (almost no effect))
[16]
  herbicidal effect rating, G: green foxtail: 0 (Herbicidal rate of 5% or less (almost no effect))
[17]
  O: lambsquarters, herbicidal effect: 3 (Herbicidal rate of 40% or more and less than 70%)
[18]
  herbicidal effect rating, P: chickweed: 4 (Herbicidal rate of 70% or more and less than 90%)
[19]
  F: southern crabgrass, herbicidal effect: 0 (Herbicidal rate of 5% or less (almost no effect))
[20]
  L: windgrass, herbicidal effect: 0 (Herbicidal rate of 5% or less (almost no effect))
[21]
  herbicidal effect rating, K: Italian ryegrass: 0 (Herbicidal rate of 5% or less (almost no effect))
[22]
  herbicidal effect rating, H: barnyard grass: 0 (Herbicidal rate of 5% or less (almost no effect))
[23]
  herbicidal effect rating, N: redroot pigweed: 0 (Herbicidal rate of 5% or less (almost no effect))
[24]
  I: wild oat, herbicidal effect: 0 (Herbicidal rate of 5% or less (almost no effect))
[25]
  K: Italian ryegrass, herbicidal effect: 3 (Herbicidal rate of 40% or more and less than 70%)
[26]
  P: chickweed, herbicidal effect: 5 (Herbicidal rate of 90% or more (almost completely withered))
[27]
  herbicidal effect rating, L: windgrass: 0 (Herbicidal rate of 5% or less (almost no effect))
[28]
  J: blackgrass, herbicidal effect: 1 (Herbicidal rate of 5% or more and less than 20%)
